ChEMBL document CHEMBL1156255, “Hit to lead optimization of pyrazolo[1,5-a]pyrimidines as B-Raf kinase inhibitors” (Bioorg Med Chem Lett, 2009)
Values belong to the compound of their own block, whether it stands above or below them.

What was measured:
[1] = target: Serine/threonine-protein kinase B-raf (Homo sapiens, UniProt P15056); test: Inhibition of b-Raf
[2] = Inhibition of PKA
[3] = target: Mitogen-activated protein kinase kinase kinase 8 (Homo sapiens, UniProt P41279); test: Inhibition of TPL2
Chain of Mitogen-activated protein kinase kinase kinase 8 (P41279 whole entry): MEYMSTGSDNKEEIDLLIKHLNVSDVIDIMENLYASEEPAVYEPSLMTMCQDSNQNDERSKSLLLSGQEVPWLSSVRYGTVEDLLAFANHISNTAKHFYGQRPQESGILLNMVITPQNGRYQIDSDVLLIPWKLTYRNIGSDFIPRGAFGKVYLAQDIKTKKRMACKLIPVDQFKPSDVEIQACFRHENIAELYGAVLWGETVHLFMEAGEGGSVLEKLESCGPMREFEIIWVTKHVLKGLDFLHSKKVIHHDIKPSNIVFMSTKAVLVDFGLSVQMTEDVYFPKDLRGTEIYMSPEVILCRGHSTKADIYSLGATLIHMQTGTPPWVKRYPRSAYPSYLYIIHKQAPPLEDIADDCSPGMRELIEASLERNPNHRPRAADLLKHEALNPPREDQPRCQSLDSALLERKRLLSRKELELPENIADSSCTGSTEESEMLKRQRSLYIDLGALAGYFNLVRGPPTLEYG

[4] = Permeability at pH 7.4 by PAMPA; format: ADME; conditions: read-out: permeability
[5] = target: Protein kinase C beta type (Homo sapiens, UniProt P05771); test: Inhibition of PKCbeta
[6] = target: MAP kinase-activated protein kinase 2 (Homo sapiens, UniProt P49137); test: Inhibition of MK2
[7] = target: Mitogen-activated protein kinase kinase kinase kinase 2 (Homo sapiens, UniProt Q12851); test: Inhibition of GCK
[8] = target: Tyrosine-protein kinase Fyn (Homo sapiens, UniProt P06241); test: Inhibition of Fyn
Chain of Tyrosine-protein kinase Fyn (P06241 whole entry): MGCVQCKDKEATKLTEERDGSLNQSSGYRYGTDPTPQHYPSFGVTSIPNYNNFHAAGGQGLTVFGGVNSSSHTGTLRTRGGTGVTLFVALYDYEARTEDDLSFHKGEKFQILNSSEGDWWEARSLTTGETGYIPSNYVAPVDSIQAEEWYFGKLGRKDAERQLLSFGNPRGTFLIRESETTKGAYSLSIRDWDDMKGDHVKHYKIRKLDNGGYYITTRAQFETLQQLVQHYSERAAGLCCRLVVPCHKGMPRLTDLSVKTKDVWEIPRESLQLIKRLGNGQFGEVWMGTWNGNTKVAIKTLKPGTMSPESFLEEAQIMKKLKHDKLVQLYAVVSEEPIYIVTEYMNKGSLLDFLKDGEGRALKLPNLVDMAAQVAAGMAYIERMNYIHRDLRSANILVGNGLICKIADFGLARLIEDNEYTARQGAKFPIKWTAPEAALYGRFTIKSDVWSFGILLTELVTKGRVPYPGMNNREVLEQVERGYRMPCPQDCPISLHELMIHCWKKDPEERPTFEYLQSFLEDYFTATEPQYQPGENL

[9] = target: Cyclin-dependent kinase 1 (Homo sapiens, UniProt P06493); test: Inhibition of CDK1
Chain of Cyclin-dependent kinase 1 (P06493 whole entry): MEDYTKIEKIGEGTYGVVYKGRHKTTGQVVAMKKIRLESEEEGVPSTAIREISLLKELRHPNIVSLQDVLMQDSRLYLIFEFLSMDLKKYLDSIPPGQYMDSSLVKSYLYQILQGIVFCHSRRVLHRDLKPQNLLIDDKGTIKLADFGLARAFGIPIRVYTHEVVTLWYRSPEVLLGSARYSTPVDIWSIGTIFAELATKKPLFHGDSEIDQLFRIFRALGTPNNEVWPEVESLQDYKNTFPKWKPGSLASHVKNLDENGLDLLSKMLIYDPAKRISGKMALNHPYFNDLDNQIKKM

[10] = target: Mitogen-activated protein kinase 14 (Homo sapiens, UniProt Q16539); test: Inhibition of P38alpha
Chain of Mitogen-activated protein kinase 14 (Q16539 whole entry): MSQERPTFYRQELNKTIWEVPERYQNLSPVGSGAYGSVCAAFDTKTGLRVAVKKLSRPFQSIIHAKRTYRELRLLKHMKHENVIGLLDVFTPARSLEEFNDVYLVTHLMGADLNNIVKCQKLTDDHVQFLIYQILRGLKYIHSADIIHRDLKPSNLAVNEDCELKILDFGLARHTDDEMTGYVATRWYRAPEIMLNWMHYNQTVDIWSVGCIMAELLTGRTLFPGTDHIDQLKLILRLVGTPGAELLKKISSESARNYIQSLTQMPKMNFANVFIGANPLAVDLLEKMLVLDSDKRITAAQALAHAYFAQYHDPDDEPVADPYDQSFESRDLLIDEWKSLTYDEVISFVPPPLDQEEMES

[11] = target: Rho-associated protein kinase 1 (Homo sapiens, UniProt Q13464); test: Inhibition of ROCK1
[12] = target: Cyclin-dependent kinase 2 (Homo sapiens, UniProt P24941); test: Inhibition of CDK2
[13] = target: Insulin-like growth factor 1 receptor (Homo sapiens, UniProt P08069); test: Inhibition of IGFR1
[14] = target: Proto-oncogene tyrosine-protein kinase Src (Homo sapiens, UniProt P12931); test: Inhibition of Src
Caco-2 = test: Antiproliferative activity against human Caco-2 cells; format: functional, cell-based
[15] = Inhibition of RSK
[16] = target: Tyrosine-protein kinase ABL1 (Homo sapiens, UniProt P00519); test: Inhibition of Abl1
[17] = Antiproliferative activity against human WM266.4 cells; format: functional, cell-based; conditions: WM 266-4
LoVo = test: Antiproliferative activity against human LoVo cells; format: functional, cell-based
[18] = target: Mitogen-activated protein kinase 1 (Homo sapiens, UniProt P28482); test: Inhibition of ERK2
BXPC-3 = test: Antiproliferative activity against human BxPC3 cells; format: functional, cell-based
[19] = target: Inhibitor of nuclear factor kappa-B kinase subunit beta (Homo sapiens, UniProt O14920); test: Inhibition of IKK-beta
Chain of Inhibitor of nuclear factor kappa-B kinase subunit beta (O14920 whole entry): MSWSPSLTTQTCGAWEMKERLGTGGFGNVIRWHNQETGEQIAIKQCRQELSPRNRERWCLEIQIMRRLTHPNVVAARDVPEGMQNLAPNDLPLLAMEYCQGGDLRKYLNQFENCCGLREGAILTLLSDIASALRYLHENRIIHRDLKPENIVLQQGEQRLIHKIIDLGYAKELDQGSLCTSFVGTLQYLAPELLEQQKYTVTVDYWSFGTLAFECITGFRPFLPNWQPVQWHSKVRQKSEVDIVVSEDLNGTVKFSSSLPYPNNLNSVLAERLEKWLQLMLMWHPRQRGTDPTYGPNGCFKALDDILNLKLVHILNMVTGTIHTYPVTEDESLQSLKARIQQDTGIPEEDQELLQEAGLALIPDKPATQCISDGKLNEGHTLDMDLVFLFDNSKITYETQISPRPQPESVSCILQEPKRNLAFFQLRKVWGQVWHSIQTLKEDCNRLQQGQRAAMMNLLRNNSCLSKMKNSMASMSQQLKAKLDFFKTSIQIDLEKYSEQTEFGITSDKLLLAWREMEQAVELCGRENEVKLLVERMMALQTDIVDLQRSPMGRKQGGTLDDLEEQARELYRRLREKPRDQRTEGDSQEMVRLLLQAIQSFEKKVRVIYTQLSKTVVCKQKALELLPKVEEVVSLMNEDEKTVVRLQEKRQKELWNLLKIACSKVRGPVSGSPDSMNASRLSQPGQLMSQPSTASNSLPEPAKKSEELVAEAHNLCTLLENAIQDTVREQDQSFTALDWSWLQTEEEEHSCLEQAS

[20] = target: Serine/threonine-protein kinase mTOR (Homo sapiens, UniProt P42345); test: Inhibition of mTOR
[21] = Inhibition of CK1gamma
[22] = Inhibition of p70S6K
[23] = target: Serine/threonine-protein kinase PLK1 (Homo sapiens, UniProt P53350); test: Inhibition of PLK1
[24] = target: Phosphatidylinositol 4,5-bisphosphate 3-kinase catalytic subunit alpha isoform (Homo sapiens, UniProt P42336); test: Inhibition of PI3Kalpha
[25] = target: Tyrosine-protein kinase Lck (Homo sapiens, UniProt P06239); test: Inhibition of LCK
[26] = target: 3-phosphoinositide-dependent protein kinase 1 (Homo sapiens, UniProt O15530); test: Inhibition of PDK1
HT-29 = test: Antiproliferative activity against human HT-29 cells; format: functional, cell-based
[27] = target: Serine/threonine-protein kinase Chk1 (Homo sapiens, UniProt O14757); test: Inhibition of CHK1
[28] = Half life in rat microsomes; format: ADME, Microsome
[29] = Metabolic stability in nude mouse microsomes assessed as half life; format: ADME, Microsome
[30] = target: RAC-alpha serine/threonine-protein kinase (Homo sapiens, UniProt P31749); test: Inhibition of PKBalpha
Chain of RAC-alpha serine/threonine-protein kinase (P31749 whole entry): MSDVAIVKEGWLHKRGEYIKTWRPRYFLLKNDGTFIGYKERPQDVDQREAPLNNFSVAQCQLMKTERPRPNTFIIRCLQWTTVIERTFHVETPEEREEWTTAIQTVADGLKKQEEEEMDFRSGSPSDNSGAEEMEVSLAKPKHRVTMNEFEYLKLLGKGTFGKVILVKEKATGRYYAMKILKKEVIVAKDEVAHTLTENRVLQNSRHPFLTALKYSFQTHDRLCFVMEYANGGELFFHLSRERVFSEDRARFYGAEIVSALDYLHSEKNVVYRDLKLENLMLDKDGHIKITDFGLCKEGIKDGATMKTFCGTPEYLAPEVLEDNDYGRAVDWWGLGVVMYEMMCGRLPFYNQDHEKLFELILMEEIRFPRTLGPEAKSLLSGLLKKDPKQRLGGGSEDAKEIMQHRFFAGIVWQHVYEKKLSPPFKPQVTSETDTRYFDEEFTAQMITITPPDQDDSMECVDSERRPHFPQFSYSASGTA

A-375 = test: Antiproliferative activity against human A375 cells; format: functional, cell-based
[31] = target: Protein kinase C alpha type (Homo sapiens, UniProt P17252); test: Inhibition of PKCalpha
[32] = target: Mitogen-activated protein kinase 8 (Homo sapiens, UniProt P45983); test: Inhibition of JNK1
Chain of Mitogen-activated protein kinase 8 (P45983 whole entry): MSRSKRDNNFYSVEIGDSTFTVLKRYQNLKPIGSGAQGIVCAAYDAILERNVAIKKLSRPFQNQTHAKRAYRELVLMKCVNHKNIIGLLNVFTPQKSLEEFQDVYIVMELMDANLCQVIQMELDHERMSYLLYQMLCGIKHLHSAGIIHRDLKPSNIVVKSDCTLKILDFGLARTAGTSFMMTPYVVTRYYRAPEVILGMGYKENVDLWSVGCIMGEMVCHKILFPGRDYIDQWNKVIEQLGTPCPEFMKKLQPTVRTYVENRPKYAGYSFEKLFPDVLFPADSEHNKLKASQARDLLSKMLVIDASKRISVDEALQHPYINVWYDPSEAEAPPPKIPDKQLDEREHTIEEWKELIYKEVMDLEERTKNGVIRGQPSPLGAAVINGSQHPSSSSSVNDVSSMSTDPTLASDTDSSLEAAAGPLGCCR

Chain of Serine/threonine-protein kinase B-raf (P15056 whole entry): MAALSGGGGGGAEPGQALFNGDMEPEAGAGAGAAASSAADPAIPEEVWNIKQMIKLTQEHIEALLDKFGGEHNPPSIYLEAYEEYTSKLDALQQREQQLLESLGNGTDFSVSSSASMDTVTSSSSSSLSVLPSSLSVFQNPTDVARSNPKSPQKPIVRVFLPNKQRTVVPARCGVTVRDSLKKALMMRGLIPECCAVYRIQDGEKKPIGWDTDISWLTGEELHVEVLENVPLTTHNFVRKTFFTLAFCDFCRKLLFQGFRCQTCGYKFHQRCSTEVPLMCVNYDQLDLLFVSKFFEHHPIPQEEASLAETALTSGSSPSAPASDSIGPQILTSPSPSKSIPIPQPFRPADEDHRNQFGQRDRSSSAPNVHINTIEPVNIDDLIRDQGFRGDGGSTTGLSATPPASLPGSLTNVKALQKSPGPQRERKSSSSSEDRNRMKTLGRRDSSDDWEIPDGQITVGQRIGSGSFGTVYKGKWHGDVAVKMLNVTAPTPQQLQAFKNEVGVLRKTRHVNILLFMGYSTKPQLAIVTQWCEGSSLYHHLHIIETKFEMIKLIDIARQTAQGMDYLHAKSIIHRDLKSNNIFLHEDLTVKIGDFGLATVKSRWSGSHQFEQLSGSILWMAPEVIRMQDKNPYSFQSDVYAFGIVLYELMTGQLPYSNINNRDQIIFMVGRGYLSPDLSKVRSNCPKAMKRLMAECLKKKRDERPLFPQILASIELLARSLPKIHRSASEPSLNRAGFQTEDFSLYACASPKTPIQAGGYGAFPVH

Structure (SMILES): O=C(Nc1cccc(-c2ccnc3cc(-c4ccncc4)nn23)c1)c1ccc(Cl)c(C(F)(F)F)c1
- IC50 [1]: 0.06 µM

Structure (SMILES): O=C(Nc1cccc(-c2ccnc3cc(-c4cccnc4)nn23)c1)c1cccc(C(F)(F)F)c1
- IC50 [1]: > 10 µM

Structure (SMILES): O=C(Nc1cccc(-c2ccnc3cc(-c4ccnc(NCCCN5CCOCC5)c4)nn23)c1)c1cccc(C(F)(F)F)c1
- IC50 [1]: 0.13 µM

Structure (SMILES): O=C(Nc1cccc(-c2ccnc3cc(-c4ccnc(NCCCN5CCCC5=O)c4)nn23)c1)c1cccc(C(F)(F)F)c1
- IC50 [1]: 0.11 µM

Structure (SMILES): O=C(Nc1cccc(-c2ccnc3cc(-c4ccnc(NCCCc5ncc[nH]5)c4)nn23)c1)c1cccc(C(F)(F)F)c1
- IC50 [1]: 0.066 µM

Now from value to compound, other results behind:

- IC50 [1]: 0.1 µM
Structure (SMILES): Cn1cncc1-c1cc2nccc(-c3cccc(NC(=O)c4cccc(C(F)(F)F)c4)c3)n2n1

- IC50 [2]: > 50 µM
- IC50 [3]: > 50 µM
- Papp [4]: 251 ×10⁻⁶ cm/s
- IC50 [5]: > 50 µM
- IC50 [6]: > 50 µM
- IC50 [7]: > 50 µM
- IC50 [8]: > 50 µM
- IC50 [9]: > 50 µM
- IC50 [10]: > 50 µM
- IC50 [11]: > 50 µM
- IC50 [12]: > 50 µM
- IC50 [13]: > 50 µM
- IC50 [14]: > 50 µM
- IC50 (Caco-2): 2.6 µM
- IC50 [15]: > 50 µM
- IC50 [16]: > 50 µM
- IC50 (LoVo): 0.4 µM
- IC50 [18]: > 50 µM
- IC50 (BXPC-3): 3.1 µM
- IC50 [19]: > 50 µM
- IC50 [20]: > 50 µM
- IC50 [21]: > 50 µM
- IC50 [22]: > 50 µM
- IC50 [23]: > 50 µM
- IC50 [24]: > 50 µM
- IC50 [25]: > 50 µM
- IC50 [26]: > 50 µM
- IC50 (HT-29): 0.35 µM
- IC50 [27]: > 50 µM
- half-life [28]: > 30 min
- half-life [29]: 24 min
- IC50 [30]: > 50 µM
- IC50 (A-375): 0.28 µM
- IC50 [31]: > 50 µM
- IC50 [32]: > 50 µM
Structure (SMILES): O=C(Nc1cccc(-c2ccnc3cc(-c4ccncc4)nn23)c1)c1cccc(C(F)(F)F)c1
- IC50 [17]: 3.5 µM

- IC50 [1]: 1.6 µM
Structure (SMILES): O=C(Nc1cccc(-c2ccnc3cc(-c4cnc[nH]4)nn23)c1)c1cccc(C(F)(F)F)c1

- IC50 [1]: 0.66 µM
Structure (SMILES): O=C(Nc1cccc(-c2ccnc3cc(-c4ccncc4)nn23)c1)c1ccc(Cl)c(Cl)c1

- IC50 [1]: 0.04 µM
Structure (SMILES): O=C(Nc1cccc(-c2ccnc3cc(-c4ccncc4)nn23)c1)Nc1ccc(Cl)c(C(F)(F)F)c1
